Assay results: US20110105349A1, “USE OF A MONOPHOSPHATE ESTER OF A PHTHALEIN COMPOUND AS A SUBSTRATE FOR TARTRATE-RESISTANT ACID PHOSPHATASE B5 (TRAP 5B)” (MUNODIAGNOSTIC SYSTEMS LIMITED, priority 2008, published 2011)
Several values for one entry are separate records, joined by “and”; a condition that tells them apart may be missing. Identical values can stand only once. Entries after “also recorded” stand apart in the source; their conditions may differ.

Assays:
[1] = test system: TRAP5b; assay: TRAP5 capture immunoassay, specific activity with each substrate (Example 3); assay type: biochemical, human; settings: for Ratio 5B:5A of specific activity / TRAP5 Specific Activity 5B: pNPP at pH 6.1, PTMP and TTMP at pH 7.0; for TRAP5 Specific Activity 5B: serum-derived TRAP5b
Protocol: (§1) Microtitre plates (Nunc Maxisorp) were coated with mouse anti-TRAP5 (clone O1A), from a solution of a 3.0 mg/L purified Mab IgG in 10 mM phosphate buffered saline (PBS), 100 μL per well and incubated overnight at room temperature. The coated plates were washed three times with 10 mM phosphate buffered saline, 0.05% Tween 20. A stabilising reagent of 5% lactose, 0.5% BSA was added, 250 μL per well, incubated for at least 10 minutes, then the liquid aspirated. The coated plates were dried overnight at 35° C. then stored at 2-8° C. protected from moisture.
(§2) Serum-derived TRAP5a and TRAP5b were separated by ion exchange chromatography using a modification of the procedure described by Lam et al, Clin. Chem. 24(7):1105-1108, 1978. 100-500 mL human serum was adjusted to around pH 5.0 with 100% acetic acid, and optionally diluted with an equal volume of 10 mM sodium phosphate buffer, pH 4.9. After clarification by centrifugation and filtering, the acidified serum was applied to a 1 cm×100-150 cm column of CM-Sepharose (Sigma, part No CCF 100) and the column was developed with a linear NaCl gradient, from 150-800 mM. Fractions containing TRAP5a and TRAP5b activity were identified using a non-capture assay essentially as described by Lam et al Clin. Chem. 24(7):1105-1108, 1978. In some instances the fractions were further assayed for TRAP5 by the immunoassays described below. Fractions containing peak levels of TRAP5a or TRAP5b were separately pooled for further analysis.
The TRAP5 protein concentration in the TRAP5a and TRAP5b preparations was determined by a sandwich immunoassay. 100-200 μL sample per well was applied to O1A-coated microtitre plates and incubated overnight at 4° C. The plate was washed three times with 10 mM phosphate buffered saline, 0.05% Tween 20, and 100-200 μL of a solution containing the rabbit anti-TRAP5 antibody at a dilution of 1:4000 was added per well. After 60 min incubation at ambient temperature the plate was washed as above and 100-200 μL of a solution containing anti-rabbit IgG-Horseradish peroxidase conjugate at a dilution of 1:5000 was added and incubated for 30 min at ambient temperature. After further washing as described above […] of TMB (BioFx Inc, part TMBW-0100-01) was added and incubated for 30 min at ambient temperature. The reactions were stopped by the addition of 100 μL 0.5M HCl and the absorbance at 450 nm was measured. TRAP5 protein concentrations were calculated by reference to a calibration curve prepared from baculovirus-derived recombinant human TRAP5.
(§3) To test for activity towards PTMP, 100 μL of a solution containing 6 mg/mL PTMP dissolved in 125 mM MOPS buffer, pH 7.0 was added per well and incubated for 0-40 min at 37° C. The reactions were stopped at the times indicated by the addition of 50 μL per well of 1M glycine/NaOH, pH11 and the absorbance at […] was measured. To test for activity towards TTMP, 100 μL of a solution containing 5 mg/mL TTMP dissolved in 80 mM MOPS buffer, 10% ethanol, pH 7.0 was added per well and incubated for 0-40 min at 37° C. The reactions were stopped at the times indicated by the addition of 50 μL per well of 0.25 M NaOH and the absorbance at […] was measured.
TRAP5a and TRAP5b preparations were prepared and quantified with respect to TRAP5 mass as described in Example 3. A set of TRAP5 calibrators was prepared by incubating 225 μg baculovirus-derived recombinant human TRAP with 12 U chymotrypsin for 6 h at ambient temperature, preparing a series of dilutions from this material and assigning TRAP5 concentrations (in U/L) to these dilutions using the commercial TRAP5b immunoassay based on WO1999/050662. The TRAP5a and TRAP5b preparations were assayed by a commercial TRAP5b immunoassay based on WO1999/050662 which uses pNPP as substrate at pH 6.1 with the modification that the chymotrypsin-treated calibrators described above were substituted for those provided by the manufacturer. […]

[2] = test system: TRAP5b; assay: Time course of substrate hydrolysis on O1A-coated plates (Example 1, FIG. 1); assay type: biochemical, human
Protocol: as §1, §2
(§4) The TRAP5 protein concentration in the TRAP5a and TRAP5b preparations was determined by a sandwich immunoassay. 100-200 μL sample per well was applied to O1A-coated microtitre plates and incubated overnight at 4° C. The plate was washed three times with 10 mM phosphate buffered saline, 0.05% Tween 20, and 100-200 μL of a solution containing the rabbit anti-TRAP5 antibody at a dilution of 1:4000 was added per well. […] The reactions were stopped by the addition of 100 μL 0.5M HCl and the absorbance at 450 nm was measured. TRAP5 protein concentrations were calculated by reference to a calibration curve prepared from baculovirus-derived recombinant human TRAP5.
as §3, with “To test for activity towards TTMP, 100 μL of a solution containing 5 mg/mL TTMP dissolved in 80 mM MOPS buffer, 10% ethanol, pH 7.0 was added per well and incubated for 0-40 min at 37° C.” left out

[3] = target: T1, TRAP5a (Homo sapiens, UniProt P13686); assay: TRAP5 capture immunoassay, specific activity with each substrate (Example 3); assay type: biochemical; settings: serum-derived TRAP5a; pNPP at pH 6.1, PTMP and TTMP at pH 7.0
T1 construct: Serum-derived TRAP5a and TRAP5b were separated by ion exchange chromatography; from tissue; host or cells: human serum
T1 sequence (P13686 22-325): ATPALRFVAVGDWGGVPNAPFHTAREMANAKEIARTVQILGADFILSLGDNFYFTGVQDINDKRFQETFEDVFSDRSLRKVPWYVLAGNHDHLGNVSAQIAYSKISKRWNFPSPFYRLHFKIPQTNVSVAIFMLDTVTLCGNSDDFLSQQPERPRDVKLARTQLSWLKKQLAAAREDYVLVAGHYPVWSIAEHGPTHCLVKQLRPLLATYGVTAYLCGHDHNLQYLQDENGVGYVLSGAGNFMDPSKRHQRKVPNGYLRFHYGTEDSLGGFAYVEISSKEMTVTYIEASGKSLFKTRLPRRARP
Protocol: as §1, §2, §4
as §3, with “To test for activity towards TTMP, 100 μL of a solution containing 5 mg/mL TTMP dissolved in 80 mM MOPS buffer, 10% ethanol, pH 7.0 was added per well and incubated for 0-40 min at 37° C.” left out
TRAP5a and TRAP5b preparations were prepared and quantified with respect to TRAP5 mass as described in Example 3. […]

[4] = target: T1, TRAP5a; assay: Time course of substrate hydrolysis on O1A-coated plates (Example 1, FIG. 1); assay type: biochemical; settings: serum-derived TRAP5a; neutral pH (7.0) in Example 1
Protocol: as §1, with “moisture. […]” for “moisture.”
The TRAP5 protein concentration in the TRAP5a and TRAP5b preparations was determined by a sandwich immunoassay. […] The reactions were stopped by the addition of 100 μL 0.5M HCl and the absorbance at 450 nm was measured. TRAP5 protein concentrations were calculated by reference to a calibration curve prepared from baculovirus-derived recombinant human TRAP5.
as §3, with “To test for activity towards TTMP, 100 μL of a solution containing 5 mg/mL TTMP dissolved in 80 mM MOPS buffer, 10% ethanol, pH 7.0 was added per well and incubated for 0-40 min at 37° C.” left out

[5] = test system: TRAP5b; assay: Activity with phthalein monophosphate esters at 0.47 mg/mL, pH 7.4 (Example 8); assay type: biochemical, human; design: 5b Activity: unit not given here; settings: 0.47 mg/mL in 100 mM MES pH7.4
Protocol: as §3
(§5) Where phthalein monophosphate esters were not available commercially, the monophosphate esters were prepared by the method of Bulbenko & Woodbridge (U.S. Pat. No. 4,045,290) by reaction of the appropriate phthalein compound (from Sigma-Aldrich) with phosphorus oxychloride (CAS 10025-87-3), followed by hydrolysis and purification. The monophosphate esters were further purified before use by HPLC chromatography to remove un-reacted phthalein dye. HPLC column 10 mm×150 mm ACE 5 C18 (Advance Chromatography Technologies, UK), load solvent composition, 30% methanol and 70% water containing 0.1% trifluoroacetic acid (TFA); product was eluted by a gradient from 30% methanol 0.1% TFA to 100% methanol 0.1% TFA at 3 mL/minute over 45 minutes.
(§6) Phthalein monophosphate esters prepared in Example 7 were diluted to 0.47 mg/mL in 100 mM MES pH7.4 buffer and applied to an assay as in Example 1.

[6] = target: T1, TRAP5a; assay: as above; assay type: biochemical; design: unit not given beside the values; settings: 0.47 mg/mL in 100 mM MES pH7.4
Protocol: as §3, §5, §6

[7] = target: T1, TRAP5a; assay: Assay of CM-Sepharose fractions of normal human serum with pNPP- and PTMP-based assays (Example 4, FIG. 3); assay type: biochemical; settings: normal human serum, CM-Sepharose fractions
From the text: TRAP5a and TRAP5b from normal human serum were separated on a CM-Sepharose column and the fractions assessed for TRAP5b using the pNPP and PTMP-based assays described in Example 3.

[8] = test system: TRAP5b; settings: WO1999/050662 (pNPP), EP1598670 (2-chloro-4-nitrophenylphosphate); cited from earlier work

5a Activity [6]	SMILES	Ratio 5B:5A of specific activity [1]	specificity for TRAP5b over TRAP5a compared with the commercial pNPP based assay ([1]; relative to pNPP-based assay) [fold]	TRAP5 Specific Activity 5B [1] [U/μg]	specific activity of TRAP5b relative to that of TRAP5a ([2]; pH 7.0, from FIG. 1)	hydrolysis of substrate by TRAP5b ([2]; serum-derived TRAP5b, neutral pH (7.0) in Example 1)	TRAP5 Specific Activity 5A [3] [U/μg]	hydrolysis of substrate by TRAP5a [4]	5b Activity [5]	Ratio of 5b:5a activity [5]	share of the material measured as TRAP5b that is actually TRAP5a [7]	pH optimum of TRAP5b [8] [pH]
	Cc1cc(O)c(C(C)C)cc1C1(c2cc(C(C)C)c(OP(=O)(O)O)cc2C)OC(=O)c2ccccc21 (stereo not drawn) [TTMP, Thymolphthalein monophosphate]	65.3	~6.5	2.3	approximately 70 times	readily hydrolyze; also recorded: hydrolised	0.035	readily hydrolyze; also recorded: hydrolised				
0.0074	Cc1cc(C2(c3cc(C)c(OP(=O)(O)O)c(Br)c3)OS(=O)(=O)c3ccccc32)cc(Br)c1O (stereo not drawn) [Bromocresol Purple, Bromocresol Purple monophosphate]								0.4755	64.3		
0.0067	O=P(O)(O)Oc1ccc(C2(c3ccc(O)c(Cl)c3)OS(=O)(=O)c3ccccc32)cc1Cl (stereo not drawn) [Chlorophenol Red, Chlorophenol Red monophosphate]								0.3558	53.1		
	O=[N+]([O-])c1ccc(OP(=O)(O)O)cc1 [pNPP, p-nitrophenyl phosphate, reference compound]	9 and 9.04		1.60			0.177				around 40%	~5.9
